Test results taken from US20220016196A1, “Aloe Based Compositions Comprising Polysaccharides and Polyphenols for Regulation of Homeostasis of Immunity” (Unigen, Inc., priority 2020, published 2022).

Experiments:
Assay type in all cases: in vivo, rat
[1] = system: IL-6; assay: LPS-induced acute lung injury, BAL IL-6 ELISA; conditions: rats
Procedure: (§1) The study was designed to evaluate the direct impact of an Aloe-based composition (UP360) made in the Example 9 in alleviating LPS-induced acute lung injury administered orally at 500 mg/kg and 250 mg/kg. […] In this study, we treated rats with the test materials orally for 7 days before model induction with LPS. On the 8th day, an hour after oral treatment, LPS was instilled intratracheally (i.t.) at 10 mg/kg dissolved in 0.1 mL/100 g PBS to each rat. The normal control rats received the same volume i.t. PBS only.
(§2) We sacrificed surviving animals 24 hours after intratracheal LPS administration to the rats. At necropsy, collected bronchoalveolar lavage (BAL) by intratracheal injection of 1.5 mL PBS into the right lobe followed by gentle aspiration at least 3 times. Pooled recovered fluid, centrifuged at 1500 rpm for 10 min at 4 ° C., and was used to measure cytokines (e.g. IL-6) and pulmonary protein levels. […]
(§3) The presence of IL-6 in undiluted rat broncho-alveolar lavage (BAL) from Example 23 was measured using the Rat IL-6 Quantikine ELISA kit from R&D Systems (product #: R6000B) as follows: undiluted BAL was added to a microplate coated with IL-6 antibody. […] After developing for 30 minutes at room temperature, a stop solution was added, and the absorbance was read at 450 nm. The concentration of IL-6 was calculated based on the absorbance readings of an IL-6 standard curve.

[2] = system: MIP-2/CINC-3; assay: LPS-induced acute lung injury, lung homogenate MIP-2/CINC-3 ELISA; conditions: rats
Procedure: as §1
We sacrificed surviving animals 24 hours after intratracheal LPS administration to the rats. At necropsy, collected bronchoalveolar lavage (BAL) by intratracheal injection of 1.5 mL PBS into the right lobe followed by gentle aspiration at least 3 times. […]
50 μL of each rat lung homogenate sample from Example 23 (10 per group for Vehicle, Sodium Butyrate (SB), UP360 Low dose, UP360 High dose, 7 per group for Control) and 50 μL of assay diluent buffer were added to the wells of a 96-well microplate coated with monoclonal CINC-3 antibody and allowed to bind for 2 hours. […] The absorbance of each well was read at 450 nm (with a 580 nm correction) and compared to a standard curve of CINC-3 in order to approximate the amount of CINC-3 in each rat lung homogenate sample.

[3] = LPS-induced acute lung injury, BAL total protein (BCA); conditions: rats
Procedure: as §1, §2
The amount of total proteins in the broncho-alveolar lavage (BAL) samples from Example 23 was measured using the Pierce BCA Protein Assay kit from ThermoFisher Scientific (product #: 23225) as follows: BAL was diluted 1:5, mixed with bicinchoninic acid (BCA) reagent in a microplate, and incubated at 37° C. for 30 minutes. Absorbance was read at 580 nm, and protein concentration in BAL was calculated based on the absorbance readings of a bovine serum albumin standard curve.

[4] = system: C Reactive Protein (CRP); assay: LPS-induced acute lung injury, BAL C Reactive Protein ELISA; conditions: rats
Procedure: as §1, §2
The presence of C Reactive Protein (CRP) in rat BAL diluted 1:1,000 was measured using the C Reactive Protein (PTX1) Rat ELISA kit from Abcam (product #: ab108827) as follows: 1:1,000 diluted BAL was added to a microplate coated with CRP antibody. […] After developing for 10 minutes at room temperature, a stop solution was added, and the absorbance was read at 450 nm. The concentration of CRP was calculated based on the absorbance readings of a CRP standard curve.

[5] = system: IL-10; assay: LPS-induced acute lung injury, BAL IL-10 ELISA; conditions: rats, LPS 10 mg/kg i.t., 24 hours post, oral, 500 mg/kg
Procedure: as §1, §2
as §3, with “IL-10” for “IL-6”, “undiluted” for “undiluted rat”, “(BAL) samples” for “(BAL)”, “R1000)” for “R6000B)”

[6] = system: LPS-induced acute lung injury rats; assay: LPS-induced acute lung injury, lung histopathology (H&E)
Procedure: as §1
We sacrificed surviving animals 24 hours after intratracheal LPS administration to the rats. At necropsy, collected bronchoalveolar lavage (BAL) by intratracheal injection of 1.5 mL PBS into the right lobe followed by gentle aspiration at least 3 times. Pooled recovered fluid, centrifuged at 1500 rpm for 10 min at 4 ° C., and was used to measure cytokines (e.g. IL-6) and pulmonary protein levels. This same right lobe was collected for tissue homogenization from each rat for MIP-2/CINC-3 protein analysis. The left lobe was fixed with formalin and submitted for histopathology evaluation to Nationwide Histology for analysis by a certified pathologist. Serum collected at necropsy was used to measure cytokines such as TNF-α and IL-1β.
The left lobe of the lung was used for the histopathology analysis.

[7] = LPS 10 mg/kg i.t., 24 hours post, oral, 500 mg/kg

## CCCC(=O)[O-].[Na+] [Sodium Butyrate]
[1]; [7]
  BAL IL-6 level, Mean ± SD: 1933.30 ± 1744.23 pg/mL
[1]; LPS i.t., 500 mg/kg oral
  reduction in the level of BAL IL-6 vs vehicle: 37.7%
[2]; [7]
  lung homogenate MIP-2/CINC-3 level, Mean ± SD: 464.00 ± 220.32 pg/mL
[2]; LPS i.t., 500 mg/kg oral
  reduction in CINC-3 level vs vehicle: 17.7%
[3]; [7]
  BAL protein level, Mean ± SD: 2940.14 ± 2092.32 µg/mL
[3]; LPS i.t., 500 mg/kg oral
  reduction in BAL total proteins vs vehicle: 30.2%
[4]; [7]
  BAL CRP level, Mean ± SD: 20093.5 ± 8826.1 pg/mL
[4]; LPS i.t., 500 mg/kg oral
  reduction of BAL CRP vs vehicle: minimal changes
[5]
  BAL IL-10 level, Mean ± SD: 154.84 ± 159.63 pg/mL
[6]; score 0-4, 500 mg/kg
  Infiltration of PMC: 2.75 ± 0.78
  Pulmonary Edema: 2.35 ± 0.95
[6]; score 0-4, H&E left lobe, 500 mg/kg
  Overall lung tissue Severity: 3.05 ± 0.42
